Measurements taken from article PMC7304060, “Broad Spectrum Deubiquitinase Inhibition Induces Both Apoptosis and Ferroptosis in Cancer Cells” (Frontiers in Oncology, 2020).
Peptide text beside a SMILES is read from it.

Target: T1, 20S proteasome (chymotrypsin-like peptidase) (Homo sapiens, UniProt P28074)
T1 construct: gene PSMB5; purified human 20S proteasome; chymotrypsin-like site (beta5, with beta6 contact)
T1 sequence (P28074 60-263): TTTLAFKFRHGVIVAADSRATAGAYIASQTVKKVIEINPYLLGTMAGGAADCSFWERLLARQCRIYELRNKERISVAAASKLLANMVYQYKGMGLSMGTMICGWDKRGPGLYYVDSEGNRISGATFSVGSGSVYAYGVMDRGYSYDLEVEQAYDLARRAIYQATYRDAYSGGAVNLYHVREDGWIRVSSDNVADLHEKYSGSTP
T1 sequence (P20618 29-241 partner): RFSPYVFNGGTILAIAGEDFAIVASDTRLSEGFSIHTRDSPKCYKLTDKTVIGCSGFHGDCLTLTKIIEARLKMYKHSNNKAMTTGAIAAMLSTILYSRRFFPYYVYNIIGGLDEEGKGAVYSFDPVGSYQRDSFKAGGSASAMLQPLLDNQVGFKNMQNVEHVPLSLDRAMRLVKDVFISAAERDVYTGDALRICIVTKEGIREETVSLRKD
Experiment: fluorogenic peptidase assay
Format: biochemical
Conditions: 37 °C; chymotrypsin-like site

Cc1cc(=O)oc2cc(NC(=O)[C@H](Cc3ccc(O)cc3)NC(=O)[C@@H](NC(=O)[C@H](CC(C)C)NC(=O)[C@H](CC(C)C)NC(=O)CCC(=O)O)C(C)C)ccc12 [Suc-LLVY-AMC, Suc-Leu-Leu-Val-Tyr-aminomethylcoumarin] (HELM PEPTIDE1{[O=C(O)CCC(=O)[*:2]].L.L.V.Y.[Cc1cc(=O)oc2cc(N[*:1])ccc12]}$$$$V2.0)
fluorogenic peptidase assay: Chymotrypsin-like activity of the proteasome was assessed with fluorogenic Suc-LLVY-AMC substrate
